In series [1] the test system is Sprague-Dawley (SD) male rats. The series can be described thus: Safety test in SD rats, administration via gastrostomy for 15 days. Conditions: rat, in vivo. The protocol:
(§1) Sprague-Dawley (SD) male rats (6 week-old) purchased from BioLASCO Taiwan Co., Ltd. are used in trials (D) and (E). The SD rats are housed on a 12-hours light and 12-hours dark cycle in an animal room kept at a constant temperature of 25±1° C. and constant humidity of 55±5%. The SD rats are housed for several days before being administered the silibinin nanoparticle of the invention via gastrostomy in a dosage shown in TABLE 3.
With reference to FIG. 6B, after being administered the silibinin nanoparticle of the invention for 15 days, all of the SD rats of groups D0 to D2 show a similar trend of increasing body weights.

Series [2] can be described thus: Serum silibinin concentration in SD rats by HPLC. Format: in vivo, rat. On the procedure: as §1
After administration for 5, 15, 30, 60, 120, 360, 720, and 1440 minutes, 0.5 mL of blood samples are collected. The blood samples stand at room temperature for coagulation, followed by centrifugation to obtain serum. High-performance liquid chromatography (HPLC) is performed to analyze serum silibinin concentration.

Series [3] in a line: Tissue silibinin concentration in SD rats 24 hours after administration by HPLC. Format: in vivo, rat. The protocol: as §1
Furthermore, after being administered silibinin or silibinin nanoparticle for 24 hours, the SD rats of groups E1 and E2 are dissected and organs of heart, liver, spleen, lung, and kidney are collected. The collected organs are homogenized by a saline buffer, followed by extraction of silibinin with acetonitrile. The extracted silibinin is analyzed by HPLC.

A further series relates to hepatitis C virus. The series can be described thus: HCVcc infectivity in Huh-7 cells infected by hepatitis C virus (luminescence). In kind it is cell-based. On the procedure:
Huh-7 cells are infected by hepatitis C virus for 3 hours. After infection, surplus hepatitis C virus are washed, followed by adding a medium with 10% fetal bovine serum (FBS) and the treatment shown in TABLE 5 for 72 hours. The resulting media is collected and the luminescence level is analyzed to evaluate HCVcc infectivity. Specifically, group F2 is treated with dimethyl sulfoxide (DMSO), group F3 is treated with interferon-α (IFN-α), a conventional medication for treating hepatitis C, group F4 is treated with PVP, group F5 is treated with the conventional silibinin dissolved in DMSO, group F6 is treated with the conventional silibinin dissolved in water, and group F7 is treated with the silibinin nanoparticle of the invention dissolved in water.

Series [4] can be described thus: Solubility in solutions mimicking blood (pH 7.4) and stomach (pH 1.2). In kind it is physicochemical. Conditions: pH 7.4, after 120 minutes. The text has this: A solution with pH 7.4 mimics the environment of the blood and a solution with pH 1.2 mimics the environment of the stomach.
That is, compared with the conventional silibinin, the silibinin nanoparticle of the invention has improved blood solubility.

[5] abbreviates: 100 mg/kg silibinin (nanoparticle 200 mg/kg with 100 mg of silibinin).

On to `COc1cc(C2Oc3cc(C4Oc5cc(O)cc(O)c5C(=O)C4O)ccc3OC2CO)ccc1O` (centres unmarked) [silibinin, 3,5,7-trihydroxy-2-[3-(4-hydroxy-3-methoxyphenyl)-2-(hydroxymethyl)-2,3-dihydro-1,4-benzodioxin-6-yl]-2,3-dihydrochromen-4-one], for which, in series [1], the “safe dosage (as silibinin content)” value was found to be 5 mg/kg body weight per day. In series [2] (setting [5]), the “highest level of serum silibinin concentration” value was 170 ng/mL and the “time to highest level of serum silibinin concentration” value turned out to be 15 min. Besides, the concentration at 1440 minutes in series [2] (male, Sprague-Dawley, rat, serum, 100 mg/kg body weight/day, 1440 minutes after administration) turned out to be 0 ng/mL. Further, the “tissue distribution of silibinin (heart, liver, spleen, lung, kidney)” value in series [3] is reported as “silibinin only exists in the lung”. This compound also displayed an HCVcc infectivity with hepatitis C virus (72 hours, dissolved in DMSO) of 4.9 log10 RLU. For the same compound, in series [4], the “dissolution in solution mimicking the environment of the blood” value is “cannot dissolve”.

In the series on hepatitis C virus (72 hours treatment), IFN-α had an HCVcc infectivity of 4.2 log10 RLU.
